Assay results reported in patent US20160160294A1, “METHODS AND MATERIALS FOR PREDICTING RESPONSE TO NIRAPARIB” (Tesaro, priority 2014, published 2016).
Like-named read-outs stand apart in the source and are kept apart here.

Experiments:
[1] = tested on: ovarian cancer PDX models
Method: A series of ovarian tumors were implanted orthotopically in mice and the resulting patient-derived xenograft (PDX) models were evaluated for niraparib sensitivity by ultrasound imaging. The BRCA status (mutated “BRCAmut” or wild-type “BRCAwt”) of each PDX model was evaluated, with BRCA1/2 variants identified by the test were classified in accordance with the recommendations of the American College of Medical Genetics and Genomics (ACMG) for standards in the interpretation and reporting of sequence variations. HRD scores were also determined for the PDX models as described in Examples 1 & 2.

[2] = tested on: TNBC patient-derived xenograft (PDX) models
Method: Mice were assigned to homogeneous groups of 10 animals when tumors reached a size of 70-200 mm^3, and were treated with niraparib at 50 mg/kg or 75 mg/kg once a day for 28 days. The compound was delivered by gavage (p.o) under a volume of […] for a 25-g mouse. Tumor volume was evaluated by measuring biweekly tumor diameters with a caliper.

[3] = tested on: basal breast cancer (BBC) patient-derived xenograft (PDX) models; conditions: subset of BBC PDX models; cited from earlier work

NC(=O)c1cccc2cn(-c3ccc([C@@H]4CCCNC4)cc3)nc12 [niraparib]
Response rate ([1]; All models (8/26)): 31% (8/26) | Response rate ([1]; BRCA1/2 deficient models (4/8)): 50% (4/8) | Response rate ([1]; HRD+ BRCA wt models (4/8)): 50% (4/8) | effect on tumor volume ([2]; T330 model (FIG. 8)): regression of tumor volume | number of TNBC PDX models whose growth was significantly inhibited ([2]; among 20 tested, 50 mg/kg or 75 mg/kg once a day for 28 days, p.o.): 6 | activity in TNBC PDX models ([2]; subset of TNBC PDX models): robust activity | response of BBC PDX models to single agent treatment [3]: responded robustly
